Columns and labels:
[1] = target: laccase from Trametes versicolor; assay: Laccase inhibition kinetic study; type: biochemical; settings: determined in this study for 32 (table cites [75]), SD = 5.75 (%)
Experimental: The inhibition constant for 32 was determined according to procedures and calculations reported previously using commercially available laccase from Trametes versicolor (Sigma-Aldrich).

[2] = tested on: Sclerotinia sclerotiorum strain FSc10; assay: In vitro antifungal activity, mycelial growth inhibition on PDA medium; type: cell-based; settings: screening at basal 50 µg/mL, PDA medium, mean ± SD of three determinations
Experimental: (§1) The cultures of Botrytis cinerea strain FBc05 and Sclerotinia sclerotiorum strain FSc10 were obtained from the collection of the Division of Plant Pathology and Mycology at the Department of Plant Protection of Wroclaw University of Environmental and Life Sciences (Poland). Cerrena unicolor (Bull.ex.Fr.) Murr, strain no. 139, originated from the culture collection of the Department of Biochemistry, University of Lublin (Poland). The stock cultures were maintained on potato dextrose agar at +4 °C and periodically transferred to a fresh medium.
(§2) Prior to the fungicidal activity assay of hydrazide–hydrazones 1–35, we considered ethanol and DMSO as potential dissolution media for tested compounds. […] Furthermore, a very important aspect of biological testing is the careful selection of organic solvents. These are typically used, e.g., methanol, ethanol, acetone, and DMSO, and may be highly toxic for microorganisms in even very low concentrations, such as 1% (v/v). Ethanol and DMSO with a final concentration between 0.1 and 1.0% (v/v) in a PDA medium were used and applied to evaluate the inhibition growth of B. cinerea, S. sclerotiorum, and C. unicolor (see Supplementary Materials). The following procedure was applied to the microorganism testing. The assays of fungi inhibition growth were performed at a basal concentration of 50 µg/mL for all compounds, and detailed experiments were extended for testing between 0 and 50 µg/mL (0, 6.25, 12.5, 25.0, and 50.0 µg/mL) for selected compounds. The tests were carried out on Petri dishes (diameter 60 mm) with PDA medium containing appropriate compound, co-solvent control, and hydrazide–hydrazone dissolved in co-solvent assay. A piece of mycelium with a 5 mm edge taken from the outer edge of the growing fungi on the PDA plate with co-solvent was transferred to a central part of the PDA plate with the examined compound. The plates thus inoculated were incubated at 22 °C in the dark for a time when the control plate containing only the co-solvent was covered entirely with the tested microorganism. For B. cinerea and S. sclerotiorum, the test took 3 days, and for C. unicolor, it took 7 days. Each assay was performed at least in triplicate. […] Model parameters c and e were estimated using the nonlinear least-squares method. Parameters d and b (with two exceptions) were fixed and assumed to be equal. Based on estimated parameters, the values of IC50 were determined. […] The IC50 values were calculated only in cases when the model predicted a decrease in growth rate by more than 50%.
(§3) In vitro antifungal activity
(§4) Prior to the fungicidal activity assay of hydrazide-hydrazones 1–35, we considered ethanol (EtOH) and DMSO as potential dissolution media for tested compounds.
(§5) EtOH and DMSO with a final concentration between 0.1–1.0% (v/v) in a PDA medium were applied to evaluate the inhibition growth of B. cinerea, S. sclerotiorum, and C. unicolor (see Table S3). The following procedure was applied to the microorganism testing with the hydrazide-hydrazones. The assays of fungi inhibition growth were performed at a basal concentration of 50 µg/mL for all compounds, and detailed experiments were extended for testing selected molecules 18, 19, 27, […]
(§6) Table S2. In vitro antifungal activity for DMSO and ethanol co-solvents.

[3] = tested on: Cerrena unicolor strain no. 139; assay: as above; type: cell-based; settings: Cerrena unicolor, NO.139; screening at basal 50 µg/mL, PDA medium, mean ± SD of three determinations; read-out: fungal growth inhibition, C. unicolor
Experimental: as §1, §2, §3, §4, §5, §6

[4] = tested on: Botrytis cinerea strain FBc05; assay: as above; type: cell-based; settings: screening at basal 50 µg/mL, PDA medium, mean ± SD of three determinations
Experimental: as §1, §2, §3, §4, §5, §6

NIH3T3 cell line = tested on: NIH3T3 cell line; set-up: method as in PMID 23142671; settings: read-out: IC50 against NIH3T3 cell line; cited from earlier work
Candida = tested on: Candida; set-up: method as in PMID 23142671; settings: cited from earlier work

SMILES	Ki [1]	melting point	fungal growth inhibition, S. sclerotiorum [2]	inhibition of growth at 50 µg/mL [3]	fungal growth inhibition, B. cinerea [4]	IC50 (NIH3T3 cell line)	MIC, anticandidal activity (Candida)
O=C(N/N=C/c1c(O)cc(O)c(/C=N/NC(=O)c2ccc(O)cc2)c1O)c1ccc(O)cc1 [compound 32, N′,N″-[(2,4,6-trihydroxy-1,3-phenylene)di-(E)-methanylylidene]bis(4-hydroxybenzohydrazide)]	194 µM	223 to 226 °C (dec.)	n.o.	14.3 ± 2.7%	n.o.		
Cn1nnnc1SCC(=O)N/N=C/c1ccc(O)cc1 [II]						632 µM	500 to 1000 µg/mL
